This note sets out measurements from patent US20090264420A1, “ORGANIC COMPOUNDS” (priority 2006, published 2009).

In one assay the target is T1, aldosterone synthase (Homo sapiens, UniProt P19099).
T1 construct: host or cells: NCI-H295R
T1 sequence (P19099 25-503): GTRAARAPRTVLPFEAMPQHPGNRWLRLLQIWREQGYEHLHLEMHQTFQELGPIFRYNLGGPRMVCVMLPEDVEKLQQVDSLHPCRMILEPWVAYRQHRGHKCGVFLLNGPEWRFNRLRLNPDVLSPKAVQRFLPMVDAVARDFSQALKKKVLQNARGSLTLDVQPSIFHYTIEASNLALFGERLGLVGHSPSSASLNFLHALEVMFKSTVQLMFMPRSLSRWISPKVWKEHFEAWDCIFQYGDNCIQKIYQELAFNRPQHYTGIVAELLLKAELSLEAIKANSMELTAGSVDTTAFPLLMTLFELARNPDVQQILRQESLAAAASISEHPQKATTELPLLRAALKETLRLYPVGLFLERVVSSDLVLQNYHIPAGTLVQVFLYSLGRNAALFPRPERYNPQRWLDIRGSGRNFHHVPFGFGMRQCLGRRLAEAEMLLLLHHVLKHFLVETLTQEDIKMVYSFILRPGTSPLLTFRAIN
Nature of the assay: Aldosterone production in Ang II-stimulated NCI-H295R cells (aldosterone synthase inhibition). The settings on record: AS: aldosterone synthase. In kind it is cell-based. From the text: (§1) Human adrenocortical carcinoma NCI-H295R cell line is obtained from American Type Culture Collection (Manassas, Va.). Insulin/transferrin/selenium (ITS)-A supplement (100×), DMEM/F-12, antibiotic/antimycotic (100×), and fetal calf serum (FCS) are purchased from Gibco (Grand Island, N.Y.). Anti-mouse PVT scintillation proximity assay (SPA) beads and NBS 96-well plates are obtained from Amersham (Piscataway, N.J.) and Corning (Acton, Mass.), respectively. Solid black 96-well flat bottom plates are purchased from Costar (Corning, N.Y.). Aldosterone and angiotensin (Ang II) are purchased from Sigma (St. Louis, Mo.). D-[1,2,6,7^−3H(N)]aldosterone was acquired from PerkinElmer (Boston, Mass.). Nu-serum was a product of BD Biosciences (Franklin Lakes, N.J.). The NADPH regenerating system, dibenzylfluorescein (DBF), and human aromatase Supersomes® are obtained from Gentest (Woburn, Mass.).
For in vitro measurement of aldosterone activity, human adrenocortical carcinoma NCI-H295R cells are seeded in NBS 96-well plates at a density of 25,000 cells/well in 100 μl′ of a growth medium containing DMEM/F12 supplemented with 10% FCS, 2.5% Nu-serum, 1 μg ITS/ml, and 1× antibiotic/antimycotic. The medium is changed after culturing for 3 days at 37° C. under an atmosphere of 5% CO2/95% air. On the following day, cells are rinsed with 100 μl of DMEM/F12 and incubated with 100 μl of treatment medium containing 1 μM Ang II and a compound at different concentrations in quadruplicate wells at 37° C. for 24 hr. At the end of incubation, 50 μl of medium is withdrawn from each well for measurement of aldosterone production by an RIA using mouse anti-aldosterone monoclonal antibodies.
Measurement of aldosterone activity can also be performed using, a 96-well plate format. Each test sample is incubated with 0.02 μCi of D-[1,2,6,7-^3H(N)]aldosterone and 0.3 μg of anti-aldosterone antibody in phosphate-buffered saline (PBS) containing 0.1% Triton X-100, 0.1% bovine serum albumin, and 12% glycerol in a total volume of 200 μl at room temperature for 1 hr. Anti-mouse PVT SPA beads (50 μl) are then added to each well and incubated overnight at room temperature prior to counting in a Microbeta plate counter. The amount of aldosterone in each sample is calculated by comparing with a standard curve generated using known quantities of the hormone.
(§2) Full concentration-response curves of the test compound are performed at least 3 times. The IC50 values are derived using a non-linear least squares curve-fitting program from Microsoft XLfit.

The next assay concerns the target T2, human aromatase (Homo sapiens, UniProt P11511).
T2 construct: purchased Gentest (Woburn, Mass.)
T2 sequence (P11511 1-503): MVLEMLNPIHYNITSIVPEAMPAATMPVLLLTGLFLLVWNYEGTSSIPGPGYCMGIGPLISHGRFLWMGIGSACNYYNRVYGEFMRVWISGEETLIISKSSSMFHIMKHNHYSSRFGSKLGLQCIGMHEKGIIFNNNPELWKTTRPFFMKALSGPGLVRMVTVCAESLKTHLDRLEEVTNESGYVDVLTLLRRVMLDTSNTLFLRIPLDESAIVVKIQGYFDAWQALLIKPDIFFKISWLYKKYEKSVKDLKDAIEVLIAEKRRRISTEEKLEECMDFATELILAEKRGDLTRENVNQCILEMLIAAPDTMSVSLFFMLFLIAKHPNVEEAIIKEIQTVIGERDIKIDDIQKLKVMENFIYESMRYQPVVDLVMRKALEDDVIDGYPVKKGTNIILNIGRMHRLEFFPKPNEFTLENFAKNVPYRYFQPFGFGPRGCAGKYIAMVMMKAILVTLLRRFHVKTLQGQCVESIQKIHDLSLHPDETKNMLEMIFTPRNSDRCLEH
Description: Human aromatase assay with dibenzylfluorescein substrate (fluorescence). The settings on record: 1.5 h; percentage of inhibitory rate at 10 μM; ARO: Aromatase; read-out: ARO % I @ 10 μM. The assay is classed as biochemical.
Source text: as §1
To measure aromatase activity, the human aromatase assay is performed in 96-well flat bottom plates according to a published protocol (Stresser et al, 2000) with minor modifications. Briefly, 10 μl, of an NADPH regenerating system containing 2.6 mM NADP^+, 6.6 mM glucose 6-phosphate, 6.6 mM MgCl2, and 0.8 U/ml glucose-6-phosphate dehydrogenase in 50 mM potassium phosphate, pH 7.4, is pre-incubated with the test compound at a desired concentration at 30° C. for 10 min in a total volume of 100 μl. Afterwards, 4 pmol of human aromatase, 20 μg of control microsomal protein, and 4 μM DBF in 100 μl of 50 mM potassium phosphate, pH 7.4, is added to each well and incubated at 30° C. for 90 min. The reaction is terminated by the addition of 75 μl of 2 N NaOH to each well. After 2 hr, the product, fluorescein, is measured by a fluorimeter using excitation and emission wavelengths of 485 and 538 nm, respectively.
as §2

The target of a further assay is T3, CYP11B1 (Homo sapiens, UniProt P15538).
T3 construct: Thus, the NCI-H295R cells have Cyp 11 B1 (steroid 11 p-hydroxylase); host or cells: NCI-H295R
T3 sequence (P15538 25-503): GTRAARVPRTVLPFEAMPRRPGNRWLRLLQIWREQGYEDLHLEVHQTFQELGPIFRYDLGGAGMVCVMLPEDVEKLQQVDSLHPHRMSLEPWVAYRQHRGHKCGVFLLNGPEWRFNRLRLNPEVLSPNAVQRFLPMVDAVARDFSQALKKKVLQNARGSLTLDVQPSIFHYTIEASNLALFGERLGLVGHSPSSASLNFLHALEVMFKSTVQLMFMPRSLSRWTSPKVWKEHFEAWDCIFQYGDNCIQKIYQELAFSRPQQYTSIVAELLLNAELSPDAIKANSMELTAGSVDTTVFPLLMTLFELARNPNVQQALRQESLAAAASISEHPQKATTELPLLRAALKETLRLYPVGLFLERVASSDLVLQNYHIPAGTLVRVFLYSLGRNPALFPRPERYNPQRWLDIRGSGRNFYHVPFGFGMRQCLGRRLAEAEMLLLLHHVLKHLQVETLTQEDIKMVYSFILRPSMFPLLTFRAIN
Nature of the assay: CYP11B1 inhibition in NCI-H295R cells (steroid release by radioimmunoassay). The assay is classed as cell-based. The conditions noted are these: percentage of inhibitory rate at 100 nM; 11B1: CYP11B1. An excerpt: The in vitro inhibitory activities for CYP 11 B1 can be determined by the following assay.
The cell line NCI-H295R was originally isolated from an adrenocortical carcinoma and has been characterized in the literature through the stimulable secretion of steroid hormones and the presence of the enymes essential for steroidogenesis. Thus, the NCI-H295R cells have Cyp 11 B1 (steroid 11 p-hydroxylase). The cells show the physiological property of zonally undifferentiated human foetal adrenocortical cells which, however, have the capacity to produce the steroid hormones which are formed in the three, phenotypically distinguishable zones in the adult adrenal, cortex.
The NCI-H295R cells (American Type Culture Collection, ATCC, Rockville, Md., USA) are grown in Dulbeoco's Modified Eagle Ham F-12 Medium (DME/F12), which has been I supplemented with Ulroser SF Serum (Soprachem, Cergy-Saint-Christophe, France), insulin, transferrin, selenite (1-T-S, Becton Dickinson Biosiences, Franklin lakes, NJ, USA) and antibiotics in 75 cm^2 cell culture vessels at 37° C. and in a 95% air-5% carbon dioxide atmosphere. The cells are subsequently transferred for colony formation into a 24-well incubation vessel. They are cultivated there in DME/F12 medium, which is now supplemented with 0.1% bovine serum instead of Ultroser SF for 24 hours. The experiment is initiated by cultivating the cells in DME/F12 medium which is supplemented with 0.1% bovine serum albumin and test compound, in the presence or absence of cell stimulants, for 72 hours. The test substance is added in a concentration range from 0.2 nanomolar to […]. […]
The excretion of aldosterone, cortisol, corticosterone and estradiol/estrone into the culture medium can be detected and quantified by commercially available; specific monoclonal antibodies in radioimmunoassays in accordance with the manufacturer's instructions.
Inhibition of the release of certain steroids can be used as a measure of the respective enzyme inhibition by the added test compounds. The dose-dependent inhibition of enzymic activity by a compound is calculated by means of an inhibition plot which is characterized by an IC50.
The IC50 values for active test compounds are ascertained by a simple linear regression analysis in order to construct inhibition plots without data weighting. The inhibition plot is calculated by fting a 4-parameter logistic function to the raw data points using the least squares method. The equation of the 4-parameter logistic function is calculated as follows: Y=(d−a)/((1+(x/c)b))+aI where: a=minimum data level b gradient I c=ICED d=maximum data level x=inhibitor concentration.

One may read the IC50 as the concentration at which inhibition is half-maximal. The low end stands for inhibition by little substance, the high end for a need for much substance. For `CCC1(C(C)(C)C)C(=O)N(Cc2ccc(F)cc2)Cc2cncn21` (single isomer, unassigned) [Compound 1, 5-tert-Butyl-5-ethyl-7-(4-fluoro-benzyl)-7,8-dihydro-imidazo[1,5-a]pyrazin-6-one], at aldosterone synthase, inhibition was half-maximal at 139 nM (IC50). In addition, the inhibition at 10 µM at human aromatase is 18%.
As to `CC(C)C1C(=O)N(CC2CCCCC2)Cc2cncn21` (single isomer, unassigned) [Compound 3, 7-Cyclohexylmethyl-5-isopropyl-7,8-dihydro-imidazo[5-a]pyrazin-6-one], the IC50 against aldosterone synthase was found to be 11 nM. Also, the inhibition at 10 µM on human aromatase amounted to 48%.
Compound `O=C1C(C2CCC2)n2cncc2CN1Cc1ccc(F)cc1` (single isomer, unassigned) [Compound 5, 5-Cyclobutyl-7-(4-fluoro-benzyl)-7,8-dihydro-imidazo[1,5-a]pyrazin-6-one] yielded an IC50 on aldosterone synthase of 18 nM. Moreover, at human aromatase, the inhibition at 10 µM came out at 93%.
The like results for `CCC(C)(C)C1C(=O)N(CC2CCCCC2)Cc2cncn21` (single isomer, unassigned) [Compound 7, 7-Cyclohexylmethyl-5 (1,1-dimethyl-propyl)-7,8-dihydro-imidazo[1,5-a]pyrazin-6-one] were, in that order, 7 nM and 50%.
Take `CC(C)C1C(=O)N(Cc2cccc(F)c2)Cc2cncn21` (single isomer, unassigned) [Compound 9, 7-(3-Fluoro-benzyl)-5-isopropyl-7,8-dihydro-imidazo[1,5-a]pyrazin-6-one]: inhibition at aldosterone synthase was half-maximal at 231 nM (IC50). In addition, the inhibition at 10 µM on human aromatase was found to be 94%.
Compound `CCC(C)(C)C1C(=O)N(CC2CCOCC2)Cc2cncn21` (single isomer, unassigned) [Compound 10, 5-(1,1-Dimethyl-propyl)-7-(tetrahydro-pyran-4-ylmethyl)-7,8-dihydro-imidazo[5-a]pyrazin-6-one] registered an IC50 against aldosterone synthase of 190 nM.
On aldosterone synthase, `O=C1C(C2CCC2)n2cncc2CCN1Cc1ccc(F)cc1` (single isomer, unassigned) [Compound 11, 4-Cyclobutyl-6-(4-fluoro-benzyl)-7,8-dihydro-6H-2,3a,6-triaza-azulen-5-one] registered a concentration for half-maximal inhibition (IC50) of 197 nM. In addition, at human aromatase, the inhibition at 10 µM was found to be 99%.
In turn, `O=C1N(Cc2ccc(F)cc2)Cc2cncn2C12CCCCC2` [Compound 4, 7′-(4-fluorobenzyl)-7′,8′-dihydro-6′H-spiro[cyclohexane-1,5′-imidazole[1,5-a]pyrazin]-6-one] had an IC50 against aldosterone synthase of 73 nM. Also, at CYP11B1, the “11B1 % I @ 100 nM” value is 99%.
